Test results from patent US10870647B2, “Imidazopyridine derivative, method for preparing same, and pharmaceutical composition containing same as active ingredient for preventing or treating cancer” (DAEGU-GYEONGBUK MEDICAL INNOVATION FOUNDATION, priority 2016, dated 2020).

Key:
Assay in all cases: Kinase selectivity, scanMAX Kinase assay panel (DiscoverX), % control at 1 uM
Type in all cases: binding
[1] = biological target: T1, scanMAX Kinase assay panel (Homo sapiens, UniProt Q8IY84); details: NIM1; 1 uM; read-out: Percent Control (%)
T1 construct: purchased DiscoverX
In short: (§1)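 Single-point screen at 1 uM compound in DMSO. Lower % control means stronger inhibition, with the cutoff for activity set at <35%.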

[2] = biological target: T2, scanMAX Kinase assay panel (Homo sapiens, UniProt P00533, DEL746-750); details: EGFR (E746-A750del); 1 uM; read-out: Percent Control (%)
T2 construct: purchased DiscoverX
In short: as §1

[3] = biological target: T3, scanMAX Kinase assay panel (Homo sapiens, UniProt P08581, Y1235D); details: MET (Y1235D); 1 uM; read-out: Percent Control (%)
T3 construct: purchased DiscoverX
T3 sequence (P08581 25-1390 Y1235D): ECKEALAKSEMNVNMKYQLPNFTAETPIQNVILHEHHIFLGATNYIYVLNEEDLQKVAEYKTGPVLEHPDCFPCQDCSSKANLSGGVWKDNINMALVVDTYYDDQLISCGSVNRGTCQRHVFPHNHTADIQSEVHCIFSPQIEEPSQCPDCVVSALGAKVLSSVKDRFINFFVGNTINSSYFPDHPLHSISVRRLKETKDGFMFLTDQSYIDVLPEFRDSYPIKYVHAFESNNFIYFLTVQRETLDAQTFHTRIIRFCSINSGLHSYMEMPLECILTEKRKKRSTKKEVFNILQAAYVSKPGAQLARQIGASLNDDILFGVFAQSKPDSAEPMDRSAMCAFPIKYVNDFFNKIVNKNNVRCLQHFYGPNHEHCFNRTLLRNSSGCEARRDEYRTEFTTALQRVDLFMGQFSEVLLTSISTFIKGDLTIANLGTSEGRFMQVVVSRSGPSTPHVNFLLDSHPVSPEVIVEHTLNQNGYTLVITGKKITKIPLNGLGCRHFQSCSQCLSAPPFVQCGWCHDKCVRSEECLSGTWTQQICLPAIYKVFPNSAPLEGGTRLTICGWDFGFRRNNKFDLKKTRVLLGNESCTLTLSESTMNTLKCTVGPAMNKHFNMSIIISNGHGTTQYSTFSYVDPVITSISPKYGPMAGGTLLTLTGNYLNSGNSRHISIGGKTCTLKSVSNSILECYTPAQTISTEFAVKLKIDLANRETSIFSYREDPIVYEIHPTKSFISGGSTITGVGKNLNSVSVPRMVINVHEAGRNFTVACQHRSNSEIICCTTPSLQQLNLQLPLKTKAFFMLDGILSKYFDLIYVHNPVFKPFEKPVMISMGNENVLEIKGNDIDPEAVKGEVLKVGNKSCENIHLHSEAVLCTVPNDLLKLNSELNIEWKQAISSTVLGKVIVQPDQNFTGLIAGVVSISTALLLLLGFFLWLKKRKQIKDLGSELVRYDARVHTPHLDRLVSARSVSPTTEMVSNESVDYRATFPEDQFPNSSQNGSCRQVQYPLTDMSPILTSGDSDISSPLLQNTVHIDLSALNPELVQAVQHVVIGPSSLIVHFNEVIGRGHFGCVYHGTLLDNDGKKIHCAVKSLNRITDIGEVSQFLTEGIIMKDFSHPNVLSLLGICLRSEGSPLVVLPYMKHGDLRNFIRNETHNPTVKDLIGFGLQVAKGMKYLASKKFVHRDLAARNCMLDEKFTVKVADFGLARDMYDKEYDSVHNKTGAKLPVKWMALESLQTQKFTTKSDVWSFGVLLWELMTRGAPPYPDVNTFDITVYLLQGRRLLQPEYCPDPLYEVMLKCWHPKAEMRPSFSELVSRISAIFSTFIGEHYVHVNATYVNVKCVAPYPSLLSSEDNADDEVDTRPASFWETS
In short: as §1

[4] = biological target: T4, scanMAX Kinase assay panel (Homo sapiens, UniProt P23443); details: S6K1; 1 uM; read-out: Percent Control (%)
T4 construct: purchased DiscoverX
In short: as §1

[5] = biological target: T5, scanMAX Kinase assay panel (Homo sapiens, UniProt P21860); details: ERBB3; 1 uM; read-out: Percent Control (%)
T5 construct: purchased DiscoverX
In short: as §1

[6] = biological target: T6, scanMAX Kinase assay panel (Homo sapiens, UniProt O60674); details: JAK2 (JH1domain-catalytic); 1 uM; read-out: Percent Control (%)
T6 construct: purchased DiscoverX
T6 sequence (O60674 whole entry): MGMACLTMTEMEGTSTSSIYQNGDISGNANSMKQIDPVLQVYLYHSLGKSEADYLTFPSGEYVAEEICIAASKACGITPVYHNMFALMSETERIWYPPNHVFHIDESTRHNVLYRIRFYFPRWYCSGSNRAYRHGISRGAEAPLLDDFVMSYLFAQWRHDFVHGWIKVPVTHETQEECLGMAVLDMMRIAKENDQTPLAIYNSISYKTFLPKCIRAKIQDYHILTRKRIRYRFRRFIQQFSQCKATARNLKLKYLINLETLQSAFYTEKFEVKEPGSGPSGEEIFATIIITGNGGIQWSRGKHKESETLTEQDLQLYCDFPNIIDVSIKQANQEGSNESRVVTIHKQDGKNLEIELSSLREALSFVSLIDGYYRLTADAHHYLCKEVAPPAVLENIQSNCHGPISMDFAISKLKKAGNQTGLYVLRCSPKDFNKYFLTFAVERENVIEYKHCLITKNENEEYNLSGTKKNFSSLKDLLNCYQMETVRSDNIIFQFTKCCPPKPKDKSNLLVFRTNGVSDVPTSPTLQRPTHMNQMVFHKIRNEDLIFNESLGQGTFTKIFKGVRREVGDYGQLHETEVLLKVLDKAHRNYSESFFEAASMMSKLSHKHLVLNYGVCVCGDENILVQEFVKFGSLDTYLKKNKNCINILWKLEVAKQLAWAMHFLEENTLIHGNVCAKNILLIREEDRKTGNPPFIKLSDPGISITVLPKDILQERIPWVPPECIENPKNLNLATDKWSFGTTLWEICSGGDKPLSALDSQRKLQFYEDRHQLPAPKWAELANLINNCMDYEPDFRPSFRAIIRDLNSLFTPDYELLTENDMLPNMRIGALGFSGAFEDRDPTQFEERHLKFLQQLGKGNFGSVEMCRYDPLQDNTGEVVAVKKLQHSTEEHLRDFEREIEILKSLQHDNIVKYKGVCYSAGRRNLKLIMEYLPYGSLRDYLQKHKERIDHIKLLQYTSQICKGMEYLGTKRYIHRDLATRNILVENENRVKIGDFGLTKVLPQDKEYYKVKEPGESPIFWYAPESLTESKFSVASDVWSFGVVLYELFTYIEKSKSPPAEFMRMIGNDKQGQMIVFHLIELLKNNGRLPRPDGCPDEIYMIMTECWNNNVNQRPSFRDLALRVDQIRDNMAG
In short: as §1

[7] = biological target: T7, scanMAX Kinase assay panel (Homo sapiens, UniProt Q9BQI3); details: EIF2AK1; 1 uM; read-out: Percent Control (%)
T7 construct: purchased DiscoverX
In short: as §1

[8] = biological target: T8, scanMAX Kinase assay panel (Mycobacterium tuberculosis, UniProt P9WI81); details: read-out: Percent Control (%)
T8 construct: purchased DiscoverX
In short: as §1

[9] = biological target: T9, scanMAX Kinase assay panel (Homo sapiens, UniProt O14733); details: MKK7; 1 uM; read-out: Percent Control (%)
T9 construct: purchased DiscoverX
T9 sequence (O14733 1-419): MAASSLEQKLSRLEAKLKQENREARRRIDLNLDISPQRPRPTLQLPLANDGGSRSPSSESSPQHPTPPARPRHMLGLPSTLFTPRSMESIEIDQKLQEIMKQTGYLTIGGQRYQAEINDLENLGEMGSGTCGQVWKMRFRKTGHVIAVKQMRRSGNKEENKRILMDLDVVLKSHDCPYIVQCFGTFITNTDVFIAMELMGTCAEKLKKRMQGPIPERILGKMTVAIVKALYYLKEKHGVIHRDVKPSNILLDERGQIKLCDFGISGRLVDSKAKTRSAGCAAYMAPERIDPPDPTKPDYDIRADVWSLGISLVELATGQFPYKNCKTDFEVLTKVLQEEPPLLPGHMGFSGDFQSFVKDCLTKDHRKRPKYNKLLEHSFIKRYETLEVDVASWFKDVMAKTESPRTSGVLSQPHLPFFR
In short: as §1

[10] = biological target: T10, scanMAX Kinase assay panel (Homo sapiens, UniProt Q8IU85); details: CAMK1D; 1 uM; read-out: Percent Control (%)
T10 construct: purchased DiscoverX
T10 sequence (Q8IU85 whole entry): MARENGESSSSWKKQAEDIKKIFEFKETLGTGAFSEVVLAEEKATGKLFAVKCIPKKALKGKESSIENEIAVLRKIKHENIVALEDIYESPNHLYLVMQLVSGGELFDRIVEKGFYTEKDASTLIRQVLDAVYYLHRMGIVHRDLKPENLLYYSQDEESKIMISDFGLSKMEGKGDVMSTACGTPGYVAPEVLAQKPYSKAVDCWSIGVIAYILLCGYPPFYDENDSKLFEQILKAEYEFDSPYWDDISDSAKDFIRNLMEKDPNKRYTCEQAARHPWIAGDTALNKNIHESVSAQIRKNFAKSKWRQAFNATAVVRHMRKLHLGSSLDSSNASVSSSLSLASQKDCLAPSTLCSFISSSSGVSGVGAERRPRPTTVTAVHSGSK
In short: as §1

[11] = biological target: T11, scanMAX Kinase assay panel (Homo sapiens, UniProt Q9UKE5); details: TNIK; 1 uM; read-out: Percent Control (%)
T11 construct: purchased DiscoverX
T11 sequence (Q9UKE5 whole entry): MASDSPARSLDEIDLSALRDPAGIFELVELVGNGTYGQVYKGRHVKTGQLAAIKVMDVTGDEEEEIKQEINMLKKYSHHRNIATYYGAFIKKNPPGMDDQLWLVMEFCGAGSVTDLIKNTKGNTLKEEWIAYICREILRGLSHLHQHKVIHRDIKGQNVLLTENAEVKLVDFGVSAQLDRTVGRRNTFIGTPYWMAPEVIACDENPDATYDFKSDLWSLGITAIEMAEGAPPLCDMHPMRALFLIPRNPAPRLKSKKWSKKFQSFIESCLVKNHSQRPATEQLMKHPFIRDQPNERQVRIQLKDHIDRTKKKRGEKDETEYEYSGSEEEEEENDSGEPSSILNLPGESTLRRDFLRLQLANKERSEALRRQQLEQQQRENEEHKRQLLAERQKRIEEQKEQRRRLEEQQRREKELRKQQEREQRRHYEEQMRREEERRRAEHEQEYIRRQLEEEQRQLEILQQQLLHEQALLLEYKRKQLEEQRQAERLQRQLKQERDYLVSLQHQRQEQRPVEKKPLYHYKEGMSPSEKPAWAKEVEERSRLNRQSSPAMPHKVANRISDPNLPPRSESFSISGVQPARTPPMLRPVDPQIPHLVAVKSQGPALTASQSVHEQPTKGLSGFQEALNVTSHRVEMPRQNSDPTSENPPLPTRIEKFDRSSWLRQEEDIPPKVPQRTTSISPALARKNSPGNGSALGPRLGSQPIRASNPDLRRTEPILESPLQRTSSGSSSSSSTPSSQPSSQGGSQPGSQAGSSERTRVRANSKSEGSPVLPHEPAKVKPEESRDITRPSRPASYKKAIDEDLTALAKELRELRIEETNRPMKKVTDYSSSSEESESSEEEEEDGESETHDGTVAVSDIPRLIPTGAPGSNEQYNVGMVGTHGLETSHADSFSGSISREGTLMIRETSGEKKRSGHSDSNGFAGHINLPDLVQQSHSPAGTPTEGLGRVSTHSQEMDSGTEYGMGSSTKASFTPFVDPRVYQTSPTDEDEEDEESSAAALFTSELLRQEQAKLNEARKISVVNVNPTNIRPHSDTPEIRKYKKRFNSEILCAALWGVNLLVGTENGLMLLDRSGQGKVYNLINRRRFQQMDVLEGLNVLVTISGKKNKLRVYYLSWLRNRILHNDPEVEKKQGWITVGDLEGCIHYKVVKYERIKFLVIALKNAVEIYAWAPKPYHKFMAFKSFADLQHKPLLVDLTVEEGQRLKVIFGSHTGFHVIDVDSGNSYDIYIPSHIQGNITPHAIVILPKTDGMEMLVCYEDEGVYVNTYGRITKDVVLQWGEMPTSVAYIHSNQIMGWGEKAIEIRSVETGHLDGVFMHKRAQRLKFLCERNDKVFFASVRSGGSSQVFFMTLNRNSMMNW
In short: as §1

[12] = biological target: T12, scanMAX Kinase assay panel (Homo sapiens, UniProt P00519, M351T); details: ABL1 (M351T)-phosphorylated; 1 uM; read-out: Percent Control (%)
T12 construct: purchased DiscoverX
In short: as §1

[13] = biological target: T13, scanMAX Kinase assay panel (Homo sapiens, UniProt P15056, V600E); details: BRAF (V600E); 1 uM; read-out: Percent Control (%)
T13 construct: purchased DiscoverX
In short: as §1

[14] = biological target: T14, scanMAX Kinase assay panel (Homo sapiens, UniProt P08069); details: IGF1R; 1 uM; read-out: Percent Control (%)
T14 construct: purchased DiscoverX
In short: as §1

[15] = biological target: T15, scanMAX Kinase assay panel (Homo sapiens, UniProt Q9BUB5); details: MKNK1; 1 uM; read-out: Percent Control (%)
T15 construct: purchased DiscoverX
In short: as §1

[16] = biological target: T16, scanMAX Kinase assay panel (Homo sapiens, UniProt O15075); details: DCAMKL1; 1 uM; read-out: Percent Control (%)
T16 construct: purchased DiscoverX
T16 sequence (O15075 whole entry): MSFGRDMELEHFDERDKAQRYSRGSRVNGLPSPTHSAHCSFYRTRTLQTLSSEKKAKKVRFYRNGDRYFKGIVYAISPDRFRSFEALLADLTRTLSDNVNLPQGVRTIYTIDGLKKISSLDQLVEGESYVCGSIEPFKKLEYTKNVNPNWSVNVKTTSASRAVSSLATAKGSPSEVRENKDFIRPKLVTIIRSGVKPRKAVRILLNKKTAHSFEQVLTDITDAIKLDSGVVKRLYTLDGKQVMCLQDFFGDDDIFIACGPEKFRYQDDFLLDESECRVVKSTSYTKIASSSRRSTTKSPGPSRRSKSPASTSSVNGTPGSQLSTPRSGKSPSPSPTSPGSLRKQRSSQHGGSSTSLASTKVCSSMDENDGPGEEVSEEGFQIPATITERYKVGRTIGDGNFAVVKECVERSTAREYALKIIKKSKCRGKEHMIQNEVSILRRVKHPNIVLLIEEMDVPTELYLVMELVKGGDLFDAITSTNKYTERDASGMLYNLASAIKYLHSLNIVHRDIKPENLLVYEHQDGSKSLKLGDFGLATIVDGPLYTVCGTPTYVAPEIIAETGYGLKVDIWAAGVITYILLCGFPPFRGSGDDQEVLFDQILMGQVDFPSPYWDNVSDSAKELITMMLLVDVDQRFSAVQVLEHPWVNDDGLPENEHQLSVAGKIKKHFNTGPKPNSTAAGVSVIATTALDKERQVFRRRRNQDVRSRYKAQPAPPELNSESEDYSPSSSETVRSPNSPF
In short: as §1

| SMILES | remaining binding at 1 µM [1] [%] | remaining binding at 1 µM [2] [%] | remaining binding at 1 µM [3] [%] | remaining binding at 1 µM [4] [%] | remaining binding at 1 µM [5] [%] | remaining binding at 1 µM [6] [%] | remaining binding at 1 µM [7] [%] | remaining binding at 1 µM [8] [%] | remaining binding at 1 µM [9] [%] | remaining binding at 1 µM [10] [%] | remaining binding at 1 µM [11] [%] | remaining binding at 1 µM [12] [%] | remaining binding at 1 µM [13] [%] | remaining binding at 1 µM [14] [%] | remaining binding at 1 µM [15] [%] | remaining binding at 1 µM [16] [%] |
| --- | --- | --- | --- | --- | --- | --- | --- | --- | --- | --- | --- | --- | --- | --- | --- | --- |
| Cc1ccc(NC(=O)C2(C(=O)Nc3ccc(F)cc3)CC2)cc1C#Cc1cnc2c(Nc3cnn(C(C)C)c3)cccn12 [Example 78] | 100 | 93 | 82 | 100 | 99 | 98 | 94 | 97 | 99 | 98 | 88 | 59 | 100 | 100 | 100 | 95 |
| Cc1cn(-c2cc(NC(=O)c3ccc(C)c(C#Cc4cnc5c(Nc6cnn(C)c6)cccn45)c3)cc(C(F)(F)F)c2)cn1 [Example 12, 4-methyl-N-(3-(4-methyl-1H-imidazol-1-yl)-5-(trifluoromethyl)phenyl)-3-((8-((1-methyl-1H-pyrazol-4-yl)amino)imidazo[1,2-a]pyridin-3-yl)ethynyl)benzamide] | 100 | 8 | 59 | 100 | 98 | 100 | 95 | 100 | 100 | 82 | 17 | 11 | 56 | 100 | 100 | 91 |
| Cc1ccc(C(=O)Nc2ccc(CN3CCN(C)CC3)c(C(F)(F)F)c2)cc1C#Cc1cnc2c(Nc3cnn(C)c3)cccn12 [Example 1, 4-methyl-3-((8-((1-methyl-1H-pyrazol-4-yl)amino)imidazo[1,2-a]pyridin-3-yl)ethynyl)-N-(4-((4-methylpiperazin-1-yl)methyl)-3-(trifluoromethyl)phenyl)benzamide] | 92 | 0 | 61 | 14 | 86 | 7 | 67 | 95 | 90 | 65 | 11 | 1 | 5 | 56 | 47 | 54 |
